The structures appear in SMILES notation.

Usually IC50 stands for the concentration needed to halve the response being measured. Read a high IC50 as lower potency.

In the assay the target is T1, human EP2 (PTGER2) (Homo sapiens, UniProt P43116).
T1 construct: Cayman Chemical (Human EP2 Reporter Assay Kit)
T1 sequence (P43116 whole entry): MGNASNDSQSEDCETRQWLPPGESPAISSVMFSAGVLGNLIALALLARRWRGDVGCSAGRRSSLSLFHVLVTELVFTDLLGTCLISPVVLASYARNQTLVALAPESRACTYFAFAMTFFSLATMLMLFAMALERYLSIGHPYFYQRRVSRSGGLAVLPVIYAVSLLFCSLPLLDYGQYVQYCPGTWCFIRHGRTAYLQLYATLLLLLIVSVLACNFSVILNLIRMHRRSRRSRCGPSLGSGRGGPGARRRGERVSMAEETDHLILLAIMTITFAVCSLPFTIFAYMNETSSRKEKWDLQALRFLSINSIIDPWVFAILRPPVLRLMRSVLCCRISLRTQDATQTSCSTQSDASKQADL
Put plainly: EP2 antagonist assay (HEK-293 CNG membrane potential cAMP assay / 293T SEAP reporter assay, PGE2-stimulated). Format: cell-based. The following applies: EP2 antagonist activity; concentration for 50% inhibition of signal compared to DMSO. The procedure, abridged:
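HEK-293 CNG cells expressing human EP2: compound preincubated 15 min at RT, then PGE2 at 5 nM final, 30 min; membrane-potential dye fluorescence (ex 530, em 590 nm), background-subtracted, gave IC50. Alternatively, 293T cells reverse-transfected with EP2 and CRE-SEAP, compound plus 13 nM PGE2 for 6-8 h, SEAP luminescence.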
In general terms: cAMP levels reflect the balance of adenylyl cyclase and phosphodiesterase activity.
Molecule `O=C(O)c1ccc(C2(NC(=O)c3ccc(Nc4cccc(F)c4)c4ccn(Cc5ccc(C(F)(F)F)cc5)c34)CC2)cc1` [Example 67, 4-(1-(4-((3-fluorophenyl)amino)-1-(4-(trifluoromethyl)benzyl)-1H-indole-7-carboxamido)cyclopropyl)benzoic acid] gave an IC50 of less than 100 nM.
The molecule `C[C@H](NC(=O)c1cc(-c2ccc(F)c(F)c2)cc2ccn(Cc3ccc(-c4ccccc4)cc3)c12)c1ccc(C(=O)O)cc1` [Example 207, (S)-4-(1-(1-([1,1′-biphenyl]-4-ylmethyl)-5-(3,4-difluorophenyl)-1H-indole-7-carboxamido)ethyl)benzoic acid] came in with an IC50 of less than 100 nM.
With `O=C(O)c1ccc(CNC(=O)c2cc(-c3cc(F)cc(F)c3)cc3ncn(Cc4ccc(C(F)(F)F)cc4)c23)cc1` [Example 173, 4-((5-(3,5-difluorophenyl)-1-(4-(trifluoromethyl)benzyl)-1H-benzo[d]imidazole-7-carboxamido)methyl)benzoic acid] the figure was less than 100 nM; with `O=C(O)c1ccc(C2(NC(=O)c3ccc(-c4ccc(F)cc4)c4ccn(Cc5ccc(C(F)(F)F)cc5)c34)CC2)cc1` [Example 42, 4-(1-(4-(4-fluorophenyl)-1-(4-(trifluoromethyl)benzyl)-1H-indole-7-carboxamido)cyclopropyl)-benzoic acid], not below 1000 nM.
Turning to `C[C@@H](NC(=O)c1ccc(-c2cc(F)cc(C(F)(F)F)c2)c2ccn(Cc3ccc(C(F)(F)F)cc3)c12)c1ccc(C(=O)O)cc1` [Example 34, (R)-4-(1-(4-(3-fluoro-5-(trifluoromethyl)phenyl)-1-(4-(trifluoromethyl)benzyl)-1H-indole-7-carboxamido)ethyl)benzoic acid], the IC50 is not below 1000 nM.
Take `C[C@@H](NC(=O)c1cc(-c2ccc(F)c(F)c2)cc2ccn(Cc3ccc(C(F)(F)F)cc3)c12)c1ccc(C(=O)O)cc1` [Example 13, (R)-4-(1-(5-(3,4-difluorophenyl)-1-(4-(trifluoromethyl)benzyl)-1H-indole-7-carboxamido)ethyl)benzoic acid]: the IC50 was not below 1000 nM.
With `O=C(O)c1ccc(C2(NC(=O)c3ccc(Nc4ccc(F)c(F)c4)c4ccn(Cc5ccc(C(F)(F)F)cc5)c34)CC2)cc1` [Example 63, 4-(1-(4-((3,4-difluorophenyl)amino)-1-(4-(trifluoromethyl)benzyl)-1H-indole-7-carboxamido)cyclopropyl)benzoic acid] the figure was 100 to 1000 nM; with `O=C(O)c1ccc(CNC(=O)c2cc(-c3cc(F)cc(F)c3)cc3ccn(Cc4ccc5ccccc5c4)c23)cc1` [Example 161, 4-((5-(3,5-difluorophenyl)-1-(naphthalen-2-ylmethyl)-1H-indole-7-carboxamido)methyl)benzoic acid], less than 100 nM; with `C[C@H](NC(=O)c1cc(-c2cc(F)cc(F)c2)cc2ccn(Cc3ccc4ccccc4c3)c12)c1ccc(C(=O)O)cc1` [Example 164, (S)-4-(1-(5-(3,5-difluorophenyl)-1-(naphthalen-2-ylmethyl)-1H-indole-7-carboxamido)ethyl)benzoic acid], less than 100 nM.
Then `O=C(O)c1ccc(CNC(=O)c2ccc(Nc3ccc(F)cc3)c3cnn(Cc4ccc5ccccc5c4)c23)cc1` [Example 182, 4-((4-((4-fluorophenyl)amino)-1-(naphthalen-2-ylmethyl)-1H-indazole-7-carboxamido)methyl)benzoic acid], with not below 1000 nM; and `O=C(O)c1ccc(C2(NC(=O)c3cc(-c4cc(F)cc(F)c4)cc4ccn(Cc5ccc(C(F)(F)F)cc5)c34)CC2)cc1` [Example 19, 4-(1-(5-(3,5-difluorophenyl)-1-(4-(trifluoromethyl)benzyl)-1H-indole-7-carboxamido)cyclopropyl)benzoic acid], with not below 1000 nM; and `O=C(NC1CC2(C1)CC(C(=O)O)C2)c1cc(-c2ccccc2)cc2[nH]cc(Sc3ccc(C(F)(F)F)cc3)c12` (racemic) [Example 113, (±) 6-(6-phenyl-3-((4-(trifluoromethyl)phenyl)thio)-1H-indole-4-carboxamido)spiro[3.3]heptane-2-carboxylic acid], with less than 100 nM.
Then `O=C(O)c1ccc(CNC(=O)c2ccc(-c3ccc(F)c(F)c3)c3ccn(Cc4ccc(C(F)(F)F)cc4)c23)cc1` [Example 23, 4-((4-(3,4-difluorophenyl)-1-(4-(trifluoromethyl)benzyl)-1H-indole-7-carboxamido)methyl) benzoic acid], with not below 1000 nM; and `C[C@@H](NC(=O)c1ccc(-c2cc(F)cc(F)c2)c2ccn(Cc3ccc(C(F)(F)F)cc3)c12)c1ccc(C(=O)O)cc1` [Example 32, (R)-4-(1-(4-(3,5-difluorophenyl)-1-(4-(trifluoromethyl)benzyl)-1H-indole-7-carboxamido)ethyl) benzoic acid], with not below 1000 nM.
As for `N#Cc1cccc(-c2ccc(C(=O)NC3(c4ccc(C(=O)O)cc4)CC3)c3c2ccn3Cc2ccc(C(F)(F)F)cc2)c1` [Example 37, 4-(1-(4-(3-cyanophenyl)-1-(4-(trifluoromethyl)benzyl)-1H-indole-7-carboxamido)cyclopropyl)benzoic acid], the IC50 was not below 1000 nM.
Then `C[C@@H](NC(=O)c1cc(-c2ccc(F)cc2)cc2ccn(Cc3ccc(C(F)(F)F)cc3)c12)c1ccc(C(=O)O)cc1` [Example 3, (R)-4-(1-(5-(4-fluorophenyl)-1-(4-(trifluoromethyl)benzyl)-1H-indole-7-carboxamido)ethyl)benzoic acid], with not below 1000 nM; and `N#Cc1cccc(-c2cc(C(=O)NCc3ccc(C(=O)O)cc3)c3c(ccn3Cc3cccc(C(F)(F)F)c3)c2)c1` [Example 126, 4-((5-(3-cyanophenyl)-1-(3-(trifluoromethyl)benzyl)-1H-indole-7-carboxamido)methyl)benzoic acid], with less than 100 nM; and `O=C(O)c1ccc(CNC(=O)c2cc(-c3ccccc3)cc3ccn(Cc4ccc(-c5ccc(F)cc5)cc4)c23)cc1` [Example 208, 4-((1-((4′-fluoro-[1,1′-biphenyl]-4-yl)methyl)-5-phenyl-1H-indole-7-carboxamido)methyl)benzoic acid], with less than 100 nM.
Then `C[C@H](NC(=O)c1cc(-c2ccccc2)cc2cnn([C@@H](C)c3ccc4ccccc4c3)c12)c1ccc(C(=O)O)cc1` [Example 197, 4-((S)-1-(1-((S)-1-(naphthalen-2-yl)ethyl)-5-phenyl-1H-indazole-7-carboxamido)ethyl)benzoic acid], with 100 to 1000 nM; and `O=C(O)c1ccc(CNC(=O)c2cc(-c3ccc(F)cc3)cc3ncn(Cc4ccc(C(F)(F)F)cc4)c23)cc1` [Example 172, 4-((5-(4-fluorophenyl)-1-(4-(trifluoromethyl)benzyl)-1H-benzo[d]imidazole-7-carboxamido)methyl)benzoic acid], with less than 100 nM.
Then `O=C(O)c1ccc(CNC(=O)c2cc(-c3cc(F)cc(F)c3)cc3ccn(Cc4ccc(-c5ccc(F)cc5)cc4)c23)cc1` [Example 210, 4-((5-(3,5-difluorophenyl)-1-((4′-fluoro-[1,1′-biphenyl]-4-yl)methyl)-1H-indole-7-carboxamido)methyl)benzoic acid], with less than 100 nM; and `CC(NC(=O)c1cc(-c2ccccc2)cc2cnn(Cc3cccc(C(F)(F)F)c3)c12)[C@H]1CC[C@H](C(=O)O)CC1` (mixture of isomers) [Example 222, (±) (1r,4r)-4-1-(5-phenyl-1-(3-(trifluoromethyl)benzyl)-1H-indazole-7-carboxamido)ethyl)cyclohexane-1-carboxylic acid], with less than 100 nM; and `O=C(O)c1ccc(CNC(=O)c2ccc(Nc3ccccc3)c3ccn(Cc4ccc5ccccc5n4)c23)cc1` [Example 153, 4-((4-(phenylamino)-1-(quinolin-2-ylmethyl)-1H-indole-7-carboxamido)methyl)benzoic acid], with less than 100 nM.
Take `CNC(=O)c1cccc(-c2cc(C(=O)NCc3ccc(C(=O)O)cc3)c3c(ccn3Cc3ccc(C(F)(F)F)cc3)c2)c1` [Example 116, 4-((5-(3-(methylcarbamoyl)phenyl)-1-(4-(trifluoromethyl)benzyl)-1H-indole-7-carboxamido)methyl)benzoic acid]: the IC50 was in the range of 100 to 1000 nM.
Then `C[C@H](NC(=O)c1cc(-c2ccccc2)cc2cnn([C@H](C)c3ccc4ccccc4c3)c12)c1ccc(C(=O)O)cc1` [Example 196, 4-((S)-1-(1-((R)-1-(naphthalen-2-yl)ethyl)-5-phenyl-1H-indazole-7-carboxamido)ethyl)benzoic acid], with less than 100 nM; and `C[C@H](NC(=O)c1cc(-c2ccccc2)cc2ccn(Cc3ccc4ccccc4n3)c12)c1ccc(C(=O)O)cc1` [Example 143, (S)-4-(1-(5-phenyl-1-(quinolin-2-ylmethyl)-1H-indole-7-carboxamido)ethyl)benzoic acid], with less than 100 nM.
With `C[C@H](NC(=O)c1cc(-c2cccnc2)cc2ccn(Cc3cccc(C(F)(F)F)c3)c12)c1ccc(C(=O)O)cc1` [Example 128, (S)-4-(1-(5-(pyridin-3-yl)-1-(3-(trifluoromethyl)benzyl)-1H-indole-7-carboxamido)ethyl)benzoic acid] the figure was less than 100 nM; with `O=C(O)c1ccc(CNC(=O)c2cc(-c3ccc(F)c(F)c3)cc3cnn(Cc4ccc(-c5ccc(F)cc5)cc4)c23)cc1` [Example 187, 4-((5-(3,4-difluorophenyl)-1-((4′-fluoro-[1,1′-biphenyl]-4-yl)methyl)-1H-indazole-7-carboxamido)methyl)benzoic acid], less than 100 nM; with `C[C@H](NC(=O)c1cc(-c2cccc(C#N)c2)cc2ccn(Cc3cccc(C(F)(F)F)c3)c12)c1ccc(C(=O)O)cc1` [Example 127, (S)-4-(1-(5-(3-cyanophenyl)-1-(3-(trifluoromethyl)benzyl)-1H-indole-7-carboxamido)ethyl)benzoic acid], less than 100 nM.

Source of the values: patent US20250179017A1 (GUANGDONG NEWOPP BIOPHARMACEUTICALS CO., LTD., priority 2022, published 2025).
